Data as given in US4980365A, “N-substituted-5,6-dimethoxy-1,2-benzisoxazole-3-propanamine and related compounds as analgesic and hypotensive agents” (Hoechst-Roussel Pharmaceuticals Inc., priority 1987, dated 1990).
pIC50: −log10 of the molar value. Read-outs that look alike come from different tables or passages of the source.

How the values were obtained:
[1] = tested on: 2-phenyl-1,4-benzoquinone-induced writhing; test: 2-phenyl-1,4-benzoquinone-induced writhing test in mice (analgesic activity, phenylquinone writhing); type: in vivo; conditions: Mus musculus, sc, read-out: ED50 (Analgesic Activity, Phenylquinone Writhing)
Excerpt: Compounds of this invention having formula I are useful as analgesic agents due to their ability to alleviate pain in mammals. […] Exptl. Biol. Med. […], 729 (1957)].

[2] = tested on: spontaneous hypertensive rat; test: Antihypertensive activity in the spontaneous hypertensive rat, indirect tail cuff method; type: in vivo; conditions: at 50 mg/kg, p.o.; treated orally for three days, measured on the third day
Description: Compounds of the present invention are also useful as antihypertensive agents due to their ability to depress blood pressure in mammals. Antihypertensive activity is measured in the spontaneous hypertensive rat by the indirect tail cuff method described in "Methods in Pharmacology", A. Schwartz, Ed., Vol. I, Appleton-Century Crofts, New York, N.Y., 1971, p. 135. In this procedure a group of five animals are treated orally for three days with the test compound in relation to a control group of the same number. The drop in blood pressure is measured on the third day following administration. The antihypertensive activities of some of the compounds, expressed as a decrease in mean arterial blood pressure (in mm Hg), are given in Table 2.

α1-adrenergic receptor = test: [3H]-WB4101: α1-adrenergic receptor binding in rat brain; conditions: rat brain membranes minus cerebella, 0.5 nM 3H-WB4101, pH 7.7, 15 minutes; read-out: [3H]-WB4101: α1-Adrenergic Receptor (IC50) Antagonist Activity
Description: RECEPTOR BINDING IN RAT BRAIN
This in vitro [^3 H]-WB4101 receptor binding assay quantitates the primary blood pressure lowering effects through α1 -receptor blockade. […] WB4101 labels an antagonist binding site on the α1 -adrenoceptor, since it is preferentially displaced by antagonists while α-noradrenergic agonists preferentially displace the ^3 H-agonists
57.2 g Tris HCl 16.2 g Tris base q.s. to 1 liter (0.5M Tris buffer, pH 7.7 at 25° C.).
Make a 1:10 dilution in distilled H2 O (0.05M Tris Buffer, pH 7.7)
[Phenoxy-3-^3 H(N)]-WB4101, (2-(2,6-dimethoxyphenoxyethyl)aminomethyl-1,4-benzodioxane, (20-25 Ci/mmol) is obtained from New England Nuclear.
L-norepinephrine bitartrate is obtained from Sigma Chemical Co.
A 10 mM stock solution of norepinephrine is made up in 0.01N HCl and 20 micro liter added to three tubes to determine nonspecific binding. This yields a final concentration of 100 micro liter in the assay.
For most assays, a 1 mM stock solution is made up in a suitable solvent and serially diluted, such that the final concentration in the assay ranges from 10^-5 to 10^-8 M. Seven concentrations are usually used for each assay.
Male Wistar rats (100-150 g) are killed by decapitation and their brains rapidly removed. […]
Sample tubes are kept on ice for additions, then vortexed and incubated for 15 minutes at 15° C. […] The filters are counted in 10 ml of liquid scintillation cocktail. […]

| SMILES | ED50 [1] | Pressure Drop (decrease in mean arterial blood pressure) [2] | ED50 ([1]; mice) | pIC50 (α1-adrenergic receptor) |
| --- | --- | --- | --- | --- |
| CC(C)=CCN1CCC2(C)c3cc(O)ccc3CC1C2C (stereo not drawn) [pentazocine, reference compound] | 1.3 mg/kg | – | – | – |
| COc1ccc([C@@H]2Sc3ccccc3N(CCN(C)C)C(=O)[C@@H]2OC(C)=O)cc1 [Diltiazem, reference compound] | – | 39 mmHg | – | – |
| COc1cc2onc(CCCN3CCN(c4ccccc4OC)CC3)c2cc1OC [3-[3-[4-(2-methoxyphenyl)-1-piperazinyl]propyl]-5,6-dimethoxy-1,2-benzisoxazole] | – | 68 mmHg | 1.7 mg/kg | – |
| COc1cc2onc(CCCNCCc3ccccc3)c2cc1OC.Cl [N-(2-phenylethyl)-5,6-dimethoxy-1,2-benzisoxazole-3-propanamine hydrochloride] | – | 32 mmHg | – | 7.08 |
| COc1cc2onc(CCCN(C)CCc3ccccc3)c2cc1OC.O=C(O)C(=O)O [N-methyl-N-(2-phenylethyl)-5,6-dimethoxy-1,2-benzisoxazole-3-propanamine oxalate] | – | – | 13.6 mg/kg | 7.17 |
| COc1cc2onc(CCCNCCc3ccc(F)cc3)c2cc1OC.Cl [N-[2-(4-fluorophenyl)ethyl]-5,6-dimethoxy-1,2-benzisoxazole-3-propanamine hydrochloride] | – | – | 3.8 mg/kg | – |
